Assay results published in PubChem BioAssay (NCI).
Where “and” joins values, the source holds several entries; their conditions need not be identical. Equal values may be shown once.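 Dose response: 5 concentrations. Exposure: 48 h. Format: 96-well plates. Endpoint: linear interpolation; highest concentration if not reached. At the GI50, growth is halved. TGI: total growth inhibition.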

Assays:
Experiment in all cases: inhibition of tumour cell growth, NCI panel, 48 h
[1] = tested on: A498 renal
[2] = tested on: SF-539 CNS
[3] = tested on: IGROV1 ovarian
[4] = tested on: NCI-H226 lung
[5] = tested on: HOP-92 NSCLC
[6] = tested on: NCI-H23 lung
[7] = tested on: SF-295 CNS
[8] = tested on: M14 melanoma
[9] = tested on: TK-10 renal
[10] = tested on: T-47D breast
[11] = tested on: MDA-N
[12] = tested on: PC-3 prostate

For `CC1=C2C(O)C(C(C)C(=O)NC(C)C)CCC2(C)C=CC1=O` (stereo not given), the TGI [1] was greater than 100 µM, the TGI [2] was greater than 100 µM and the TGI [3] was greater than 100 µM. It also gave a TGI [4] greater than 100 µM, a TGI [5] greater than 100 µM and a TGI [6] greater than 100 µM. For the same molecule, the TGI [7] was greater than 100 µM.

With `CN(C(=O)c1cccs1)C(=S)N1CCN(c2ccccc2)CC1` the TGI [8] was greater than 100 µM, the TGI [9] was greater than 100 µM and the TGI [3] was greater than 100 µM. For the same molecule, the TGI [10] was greater than 100 µM, the TGI [11] was greater than 100 µM and the TGI [4] was greater than 100 µM. The TGI [5] was greater than 100 µM, the TGI [6] was greater than 100 µM and the TGI [7] was greater than 100 µM.

`O=C1C[C@H]2[C@H](c3ccc(Br)cc3)[C@H]3C(=O)c4ccccc4NC(=O)[C@@H]3[C@@]2(O)c2ccccc2N1` gave a TGI [1] of 78.8 µM, a TGI [2] of 54.7 µM and a TGI [8] of 29 µM. It also gave a TGI [9] of 56.8 µM, a TGI [3] of 33.4 µM and a TGI [12] greater than 100 µM. The TGI [11] was 55 µM, the TGI [4] was greater than 100 µM and the TGI [5] was 4.96 µM. For the same molecule, the TGI [6] was 38.9 µM and the TGI [7] was greater than 100 µM.

`COc1cc(OC)nc(Nc2c(C#N)c3nc4ccccc4n3c3ccccc23)n1` showed a TGI [2] of 35.1 µM, a TGI [8] greater than 100 µM and a TGI [9] of 74.2 µM. It also gave a TGI [3] greater than 100 µM, a TGI [10] greater than 100 µM and a TGI [12] greater than 100 µM. For the same molecule, the TGI [11] was greater than 100 µM, the TGI [4] was greater than 100 µM and the TGI [6] was greater than 100 µM. It also gave a TGI [7] of 53 µM.

`COC1(C)C=NCC(C)(C)NC(=O)C(C)(OC)C=NCC(C)(C)NC1=O` (stereo not given) was tested, and the TGI [2] was greater than 10 µM, the TGI [8] was greater than 10 µM and the TGI [9] was greater than 10 µM. It also gave a TGI [3] greater than 10 µM, a TGI [10] greater than 10 µM and a TGI [12] greater than 10 µM. It also gave a TGI [11] greater than 10 µM, a TGI [5] greater than 10 µM and a TGI [6] greater than 10 µM. It also gave a TGI [7] greater than 10 µM.

In the case of `O=C(Nc1c(Cl)cc([N+](=O)[O-])cc1Cl)/C(=N\Nc1cccc(Cl)c1)c1c(O)c2ccccc2oc1=O`, the TGI [1] is reported as 91.4 µM, the TGI [2] is reported as greater than 100 µM and the TGI [9] is reported as greater than 100 µM. The TGI [3] was greater than 100 µM, the TGI [6] was greater than 100 µM and the TGI [7] was greater than 100 µM.

With `COc1cc([C@@H]2c3cc4c(c(O)c3C[C@H]3COC(=O)[C@@H]32)OCO4)cc(OC)c1O` the GI50 [1] was 0.00144 µM, the TGI [1] was 0.0046 µM and < 0.02 µM and the GI50 [3] was 0.00276 µM. For the same molecule, the TGI [3] was greater than 128 µM, the GI50 [4] was 0.00562 µM and the GI50 [5] was 0.00576 µM. The TGI [5] was 0.113 µM, the TGI [6] was 0.637 µM and the GI50 [7] was 0.00304 µM. The TGI [7] was less than 0.02 µM.

`NC(CCCCNC(=O)C(Cc1ccccc1)NC(=O)OCc1ccccc1)C(=O)NC(CCCCNC(=O)C(Cc1ccccc1)NC(=O)OCc1ccccc1)C(=O)NC(CCCCNC(=O)C(Cc1ccccc1)NC(=O)OCc1ccccc1)C(=O)NC(CCCCNC(=O)C(Cc1ccccc1)NC(=O)OCc1ccccc1)C(=O)NC(CCCCNC(=O)C(Cc1ccccc1)NC(=O)OCc1ccccc1)C(=O)NC(CCCCNC(=O)C(Cc1ccccc1)NC(=O)OCc1ccccc1)C(=O)O` (stereo not given) gave a TGI [8] greater than 100 µM, a TGI [9] greater than 100 µM and a TGI [3] greater than 100 µM. The TGI [10] was greater than 100 µM, the TGI [12] was greater than 100 µM and the TGI [11] was greater than 100 µM. It also gave a TGI [4] greater than 100 µM and a TGI [6] greater than 100 µM.

In the case of `COc1cc(C=O)c(-c2cc3c(cc2C=O)OCO3)c(OC)c1OC`, the TGI [2] is reported as 188 µM, the TGI [9] is reported as greater than 290 µM and the TGI [3] is reported as greater than 290 µM. For the same molecule, the TGI [4] was 280 µM, the TGI [5] was 241 µM and the TGI [6] was 222 µM. For the same molecule, the TGI [7] was 219 µM.

Work on `N=c1oc2c(Cl)cc(Cl)cc2cc1C(=O)Nc1ccccn1` yielded a TGI [1] greater than 100 µM, a TGI [2] greater than 100 µM and a TGI [8] greater than 100 µM. It also gave a TGI [9] greater than 100 µM, a TGI [10] greater than 100 µM and a TGI [12] greater than 100 µM. The TGI [11] was greater than 100 µM, the TGI [4] was greater than 100 µM and the TGI [6] was greater than 100 µM. For the same molecule, the TGI [7] was greater than 100 µM.

`Cc1cc(NCCCCCCNc2cc(C)nc3ccc(Cl)cc23)c2cc(Cl)ccc2n1` showed a TGI [1] greater than 100 µM, a TGI [2] of 29.4 µM and a TGI [8] greater than 100 µM. The TGI [9] was 62.1 µM, the TGI [4] was greater than 100 µM and the TGI [6] was 30.7 µM. For the same molecule, the TGI [7] was 31.2 µM.
